From patent US20250188092A1, “RIFAMYCIN ANALOGS” (THE REGENTS OF THE UNIVERSITY OF MICHIGAN, priority 2021, published 2025)
In brackets after ≈: the same amount, converted by molar mass.

Tests used:
VERO cells (ATCC CRL-81) = assay: Vero cell toxicity; assay type: cell-based; conditions: Chlorocebus sabaeus, Vero; 72 hours exposure
Method: Cytotoxicity for a mammalian cell line was determined by exposing VERO cells (ATCC CRL-81) to serial dilutions of test compounds for 72 hours, followed by addition of resazurin and measurement of fluorescence after 4 hours incubation (Choules, et al., Antimnicrob. Agents Chemother. 2019, 63, e02204-02218).

MTB H37Rv ATCC 27294 = assay: MIC, microplate Alamar Blue assay (MABA); assay type: cell-based, Mycobacterium tuberculosis; conditions: for MIC / MIC90: Mycobacterium tuberculosis, MTB H37Rv ATCC 27294, microplate Alamar Blue assay, lowest concentration giving ≥90% reduction in fluorescence; for MIC: read-out: MIC90 MABA
M. tuberculosis H37Rv = assay: Minimum bactericidal concentration (MBC, CFU Assay); assay type: cell-based, Mycobacterium tuberculosis; conditions: for MBC99 Day 7 (CFU Assay) MBC99 Rel to RMP: CFU Assay MBC99 relative to rifampin (RMP = 1); for MBC: Mycobacterium tuberculosis, 168 h, Day 7, M. tuberculosis H37Rv, ≥99% reduction in colony forming units, read-out: MBC99 Day 7 (CFU Assay) MBC99
DPX2 cells = conditions: for DPX2 Viability @ 6.25 μM: 24 h; for DPX2 Viability @ 25 μM: human

Compound | IC50 (VERO cells (ATCC CRL-81)) [µM] | MIC90 MABA Rel to RMP (MTB H37Rv ATCC 27294) | MIC (MTB H37Rv ATCC 27294) [µM] | MBC99 Day 7 (CFU Assay) MBC99 Rel to RMP (M. tuberculosis H37Rv) | MBC (M. tuberculosis H37Rv) [µM] | DPX2 Viability @ 6.25 μM (DPX2 cells) [%] | DPX2 Viability @ 25 μM (DPX2 cells) [%] | MBC better than that of rifampin (M. tuberculosis H37Rv) [fold] | MIC90 (MTB H37Rv ATCC 27294) [µM]
CO[C@H]1/C=C/O[C@@]2(C)Oc3c(C)c(O)c4c(=O)c(c5oc6cccc(OCc7cccc(CN8CCN(C(=O)Cn9ccnc9)CC8)c7)c6nc-5c4c3C2=O)NC(=O)/C(C)=C\C=C\[C@H](C)[C@H](O)[C@@H](C)[C@@H](O)[C@@H](C)[C@H](OC(C)=O)[C@@H]1C [Compound 11e, (7S,9E,11S,12R,13S,14R,15R,16R,17S,18S,19E,21Z)-2,15,17-Trihydroxy-32-{[3-({4-[2-(1H-imidazol-1-yl)acetyl]piperazin-1-yl}methyl)phenyl]methoxy}-11-methoxy-3,7,12,14,16,18,22-heptamethyl-6,23,37-trioxo-8,27,38-trioxa-24,34-diazahexacyclo[23.11.1.1^4,7.0^5,36.0^26,35.0^28,33]octatriaconta-1(36)2,4,9,19,21,25,28,30,32,34-undecaen-13-yl acetate] | > 8 | 0.93 | 0.048 | 0.15 | 0.02 | 105 | 96 |  | 
CO[C@H]1/C=C/O[C@@]2(C)Oc3c(C)c(O)c4c(=O)c(c5oc6cc(N7CCN(CC(C)C)CC7)cc(OCc7ccc(CN8CCNCC8)cc7)c6nc-5c4c3C2=O)NC(=O)/C(C)=C\C=C\[C@H](C)[C@H](O)[C@@H](C)[C@@H](O)[C@@H](C)[C@H](OC(C)=O)[C@@H]1C [Compound 17b, (7S,9E,11S,12R,13S,14R,15R,16R,17S,18S,19E,21Z)-2,15,17-Trihydroxy-11-methoxy-3,7,12,14,16,18,22-heptamethyl-30-[4-(2-methylpropyl)piperazin-1-yl]-6,23,37-trioxo-32-({4-[(piperazin-1-yl)methyl]phenyl}methoxy)-8,27,38-trioxa-24,34-diazahexacyclo[23.11.1.1^4,7.0^5,36.0^26,35.0^28,33]octatriaconta-1(36)2,4,9,19,21,25,28,30,32,34-undecaen-13-yl acetate] | 7.9 | 0.24 | < 0.016 | 0.15 | 0.02 | 109 | 45 | ~5 | 
CO[C@H]1/C=C/O[C@@]2(C)Oc3c(C)c(O)c4c(=O)c(c5oc6cc(N7CCC(C(=O)O)CC7)cc(C)c6nc-5c4c3C2=O)NC(=O)/C(C)=C\C=C\[C@H](C)[C@H](O)[C@@H](C)[C@@H](O)[C@@H](C)[C@H](OC(C)=O)[C@@H]1C [Compound 29f, 1-[(7S,9E,11S,12R,13S,14R,15R,16R,17S,18S,19E,21Z)-13-(acetyloxy)-2,15,17-trihydroxy-11-methoxy-3,7,12,14,16,18,22,32-octamethyl-6,23,37-trioxo-8,27,38-trioxa-24,34-diazahexacyclo-[23.11.1.1^4,7.0^5,36.0^26,35.0^28,33]octatriaconta-1,3,5(36)9,19,21,25,28,30,32,34-undecaen-30-yl]piperidine-4-carboxylic acid] | > 10 | 8.9 |  |  |  | 126 | 131 |  | 0.238 (≈ 0.22 µg/mL)
CO[C@H]1/C=C/O[C@@]2(C)Oc3c(C)c(O)c4c(=O)c(c5oc6cc(N7CCC(CC(=O)O)CC7)cc(C)c6nc-5c4c3C2=O)NC(=O)/C(C)=C\C=C\[C@H](C)[C@H](O)[C@@H](C)[C@@H](O)[C@@H](C)[C@H](OC(C)=O)[C@@H]1C [Compound 29g, 2-{4-[(7S,9E,11S,12R,13S,14R,15R,16R,17S,18S,19E,21Z)-13-(acetyloxy)-2,15,17-trihydroxy-11-methoxy-3,7,12,14,16,18,22,32-octamethyl-6,23,37-trioxo-8,27,38-trioxa-24,34-diazahexacyclo[23.11.1.1^4,7.0^5,36.0^26,35.0^28,33]octatriaconta-1,3,5(36)9,19,21,25,28,30,32,34-undecaen-30-yl]piperidin-4-yl}acetic acid] | > 10 | 1.9 |  |  |  | 100 | 101 |  | 0.051 (≈ 0.0479 µg/mL)
CO[C@H]1/C=C/O[C@@]2(C)Oc3c(C)c(O)c4c(=O)c(c5oc6cc(N7CCN(CC(=O)O)CC7)cc(C)c6nc-5c4c3C2=O)NC(=O)/C(C)=C\C=C\[C@H](C)[C@H](O)[C@@H](C)[C@@H](O)[C@@H](C)[C@H](OC(C)=O)[C@@H]1C [Compound 29h, 2-{4-[(7S,9E,11S,12R,13S,14R,15R,16R,17S,18S,19E,21Z)-13-(acetyloxy)-2,15,17-trihydroxy-11-methoxy-3,7,12,14,16,18,22,32-octamethyl-6,23,37-trioxo-8,27,38-trioxa-24,34-diazahexacyclo[23.11.1.1^4,7.0^5,36.0^26,35.0^28,33]octatriaconta-1,3,5(36)9,19,21,25,28,30,32,34-undecaen-30-yl]piperazin-1-yl}acetic acid] | > 10 | 0.69 |  |  |  | 109 | 98 |  | 0.018 (≈ 0.0169 µg/mL)
CO[C@H]1/C=C/O[C@@]2(C)Oc3c(C)c(O)c4c(=O)c(c5oc6cc(C)cc(N7CCN(CCn8ccnc8)CC7)c6nc-5c4c3C2=O)NC(=O)/C(C)=C\C=C\[C@H](C)[C@H](O)[C@@H](C)[C@@H](O)[C@@H](C)[C@H](OC(C)=O)[C@@H]1C [Compound 30e, (7S,9E,11S,12R,13S,14R,15R,16R,17S,18S,19E,21Z)-2,15,17-Trihydroxy-32-{4-[3-(1H-imidazol-1-yl)ethyl]piperazin-1-yl}-11-methoxy-3,7,12,14,16,18,22,30-octamethyl-6,23,37-trioxo-8,27,38-trioxa-24,34-diazahexacyclo[23.11.1.1^4,7.0^5,36.0^26,35.0^28,33]octatriaconta-1(36)2,4,9,19,21,25,28,30,32,34-undecaen-13-yl acetate] | > 10 | 3.11 |  |  |  | 130 | 119 |  | 0.084
CO[C@H]1/C=C/O[C@@]2(C)Oc3c(C)c(O)c4c(=O)c(c5oc6cc(C)cc(N7CCN(C(=O)c8cccc(-n9ccnc9)c8)CC7)c6nc-5c4c3C2=O)NC(=O)/C(C)=C\C=C\[C@H](C)[C@H](O)[C@@H](C)[C@@H](O)[C@@H](C)[C@H](OC(C)=O)[C@@H]1C [Compound 30f, (7S,9E,11S,12R,13S,14R,15R,16R,17S,18S,19E,21Z)-2,15,17-Trihydroxy-32-{4-[3-(1H-imidazol-1-yl)benzoyl]piperazin-1-yl}-11-methoxy-3,7,12,14,16,18,22,30-octamethyl-6,23,37-trioxo-8,27,38-trioxa-24,34-diazahexacyclo[23.11.1.1^4,7.0^5,36.0^26,35.0^28,33]octatriaconta-1(36)2,4,9,19,21,25,28,30,32,34-undecaen-13-yl acetate] | > 10 | 1.63 |  |  |  | 98 | 64 |  | 0.044
